Assay results taken from PubChem BioAssay AID1963853 (Molecular Pharmacology Branch, DTP, NCI, 2024).
pIC50: −log10 of the molar value.

System: 266295-075-R-J1-PDC spheroid viability
Assay: Anticancer human tumor 266295-075-R-J1-PDC patient-derived head and neck squamous carcinoma cell line growth inhibition [POLQ]
Conditions: spheroids with HUVEC and MSC; for pIC50: curve of first compound; for viability, T/C: stronger effect = lower value
Method in brief: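 Patient-derived tumour cells were co-cultured with HUVEC and mesenchymal stem cells as multicellular spheroids at 37 °C. They were treated with POLQ inhibitors (novobiocin, ART-558, RP6685) alone or combined with other agents. Top concentrations were at or near clinical Cmax (otherwise 10 microM; SN-38 at 1 microM), decreasing in half-log steps.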

[1] = second compound 0.0316 µM, first compound 0.0316 µM
[2] = second compound 0.0316 µM, first compound 0.1 µM
[3] = second compound 0.0316 µM, first compound 0.316 µM
[4] = second compound 0.0316 µM, first compound 1 µM
[5] = second compound 0.0316 µM, first compound 3.16 µM
[6] = second compound 0.0316 µM, first compound 10 µM
[7] = second compound 0.1 µM, first compound 0.0316 µM
[8] = second compound 0.1 µM, first compound 0.1 µM
[9] = second compound 0.1 µM, first compound 0.316 µM
[10] = second compound 0.1 µM, first compound 1 µM
[11] = second compound 0.1 µM, first compound 3.16 µM
[12] = second compound 0.1 µM, first compound 10 µM
[13] = second compound 0.316 µM, first compound 0.0316 µM
[14] = second compound 0.316 µM, first compound 0.1 µM
[15] = second compound 0.316 µM, first compound 0.316 µM
[16] = second compound 0.316 µM, first compound 1 µM
[17] = second compound 0.316 µM, first compound 3.16 µM
[18] = second compound 0.316 µM, first compound 10 µM
[19] = second compound 1 µM, first compound 0.0316 µM
[20] = second compound 1 µM, first compound 0.1 µM
[21] = second compound 1 µM, first compound 0.316 µM
[22] = second compound 1 µM, first compound 1 µM
[23] = second compound 1 µM, first compound 3.16 µM
[24] = second compound 1 µM, first compound 10 µM
[25] = second compound 3.16 µM, first compound 0.0316 µM
[26] = second compound 3.16 µM, first compound 0.1 µM
[27] = second compound 3.16 µM, first compound 0.316 µM
[28] = second compound 3.16 µM, first compound 1 µM
[29] = second compound 3.16 µM, first compound 3.16 µM
[30] = second compound 3.16 µM, first compound 10 µM
[31] = second compound 10 µM, first compound 0.0316 µM
[32] = second compound 10 µM, first compound 0.1 µM
[33] = second compound 10 µM, first compound 0.316 µM
[34] = second compound 10 µM, first compound 1 µM
[35] = second compound 10 µM, first compound 3.16 µM
[36] = second compound 10 µM, first compound 10 µM
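Note: spheroids exposed to compounds for seven days before readout.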

SMILES: O=C(c1cc(Cc2n[nH]c(=O)c3ccccc23)ccc1F)N1CCN(C(=O)C2CC2)CC1 + Cc1cccc(N(C)C(=O)C2C(O)CCN2c2nc(C)cc(C(F)(F)F)c2C#N)c1
- pIC50 (second compound 0.0316 µM): < 5.00
- pIC50 (second compound 0.1 µM): < 5.00
- pIC50 (second compound 0.316 µM): < 5.00
- pIC50 (second compound 1 µM): < 5.00
- pIC50 (second compound 3.16 µM): < 5.00
- pIC50 (second compound 10 µM): < 5.00
- viability, T/C [1]: 91%
- viability, T/C [2]: 104%
- viability, T/C [3]: 80.3%
- viability, T/C [4]: 85.6%
- viability, T/C [5]: 93.2%
- viability, T/C [6]: 104%
- viability, T/C [7]: 95.5%
- viability, T/C [8]: 103%
- viability, T/C [9]: 91.4%
- viability, T/C [10]: 89.6%
- viability, T/C [11]: 99.3%
- viability, T/C [12]: 78%
- viability, T/C [13]: 86.6%
- viability, T/C [14]: 86.5%
- viability, T/C [15]: 91.7%
- viability, T/C [16]: 91.4%
- viability, T/C [17]: 107%
- viability, T/C [18]: 75.3%
- viability, T/C [19]: 121%
- viability, T/C [20]: 110%
- viability, T/C [21]: 89.5%
- viability, T/C [22]: 92.1%
- viability, T/C [23]: 82.5%
- viability, T/C [24]: 85.9%
- viability, T/C [25]: 92.8%
- viability, T/C [26]: 97.1%
- viability, T/C [27]: 93.5%
- viability, T/C [28]: 110%
- viability, T/C [29]: 121%
- viability, T/C [30]: 89%
- viability, T/C [31]: 101%
- viability, T/C [32]: 99%
- viability, T/C [33]: 95.1%
- viability, T/C [34]: 107%
- viability, T/C [35]: 115%
- viability, T/C [36]: 94.6%

SMILES: CNCc1ccc(-c2[nH]c3cc(F)cc4c3c2CCNC4=O)cc1 + COC1C(OC(N)=O)C(O)C(Oc2ccc3c(O)c(NC(=O)c4ccc(O)c(CC=C(C)C)c4)c(=O)oc3c2C)OC1(C)C
- pIC50 (second compound 0.0316 µM): < 5.00
- pIC50 (second compound 0.1 µM): < 5.00
- pIC50 (second compound 0.316 µM): < 5.00
- pIC50 (second compound 1 µM): < 5.00
- pIC50 (second compound 3.16 µM): < 5.00
- pIC50 (second compound 10 µM): < 5.00
- viability, T/C [1]: 95.1%
- viability, T/C [2]: 79.6%
- viability, T/C [3]: 86.8%
- viability, T/C [4]: 78.3%
- viability, T/C [5]: 83.8%
- viability, T/C [6]: 98.2%
- viability, T/C [7]: 90.2%
- viability, T/C [8]: 85.1%
- viability, T/C [9]: 97.2%
- viability, T/C [10]: 86.9%
- viability, T/C [11]: 91.3%
- viability, T/C [12]: 99%
- viability, T/C [13]: 111%
- viability, T/C [14]: 83.3%
- viability, T/C [15]: 93.1%
- viability, T/C [16]: 91.5%
- viability, T/C [17]: 108%
- viability, T/C [18]: 114%
- viability, T/C [19]: 92.8%
- viability, T/C [20]: 92.4%
- viability, T/C [21]: 90.5%
- viability, T/C [22]: 83.7%
- viability, T/C [23]: 107%
- viability, T/C [24]: 105%
- viability, T/C [25]: 97.7%
- viability, T/C [26]: 85.5%
- viability, T/C [27]: 92.1%
- viability, T/C [28]: 81%
- viability, T/C [29]: 108%
- viability, T/C [30]: 115%
- viability, T/C [31]: 94.2%
- viability, T/C [32]: 82.5%
- viability, T/C [33]: 96.7%
- viability, T/C [34]: 101%
- viability, T/C [35]: 113%
- viability, T/C [36]: 105%

SMILES: C#Cc1c(F)ccc2cc(O)cc(-c3ncc4c(N5CC6CCC(C5)N6)nc(OCC56CCCN5CC(F)C6)nc4c3F)c12 (stereo unspecified) + Cc1cccc(N(C)C(=O)C2C(O)CCN2c2nc(C)cc(C(F)(F)F)c2C#N)c1
- pIC50 (second compound 0.0316 µM): < 5.00
- pIC50 (second compound 0.1 µM): < 5.00
- pIC50 (second compound 0.316 µM): < 5.00
- pIC50 (second compound 1 µM): < 5.00
- pIC50 (second compound 3.16 µM): 5.19
- pIC50 (second compound 10 µM): < 5.00
- viability, T/C [1]: 91.9%
- viability, T/C [2]: 76.7%
- viability, T/C [3]: 82.8%
- viability, T/C [4]: 66.8%
- viability, T/C [5]: 66.7%
- viability, T/C [6]: 57%
- viability, T/C [7]: 111%
- viability, T/C [8]: 94.1%
- viability, T/C [9]: 70%
- viability, T/C [10]: 62.8%
- viability, T/C [11]: 59.6%
- viability, T/C [12]: 55.7%
- viability, T/C [13]: 102%
- viability, T/C [14]: 87.4%
- viability, T/C [15]: 78.6%
- viability, T/C [16]: 70.6%
- viability, T/C [17]: 70.9%
- viability, T/C [18]: 58.8%
- viability, T/C [19]: 90.3%
- viability, T/C [20]: 93.1%
- viability, T/C [21]: 75.5%
- viability, T/C [22]: 67.3%
- viability, T/C [23]: 67.8%
- viability, T/C [24]: 57.8%
- viability, T/C [25]: 154%
- viability, T/C [26]: 83.7%
- viability, T/C [27]: 76.9%
- viability, T/C [28]: 65.1%
- viability, T/C [29]: 66.6%
- viability, T/C [30]: 55.6%
- viability, T/C [31]: 84.5%
- viability, T/C [32]: 91.9%
- viability, T/C [33]: 82.9%
- viability, T/C [34]: 63.2%
- viability, T/C [35]: 65.7%
- viability, T/C [36]: 85%
